Results from patent US20250136689A1, “COMPOSITIONS FOR AND METHODS OF TREATING HEMATOLOGICAL CANCERS” (Duke University, priority 2022, published 2025).
Read-outs that look alike come from different tables or passages of the source.

Legend:
[1] = versus doxorubicin; cited from earlier work
c1498 AML = test: Survival of C57BL/6 mice injected with c1498 AML cells; assay type: in vivo; settings: combination: cytarabine 100 mg/kg i.p. every 12 hrs for 3 times, then Annexin V-Fc i.p. 4 times at 72 hours intervals
Experimental: About 2×10^5 c1498 cells were injected into the tail vein of C57BL/6 mice. At 24 hrs after the injection, the mice were treated with 100 mg/kg cytarabine (injected i.p. every 12 hrs for 3 times). At 24 hrs after the last treatment, Annexin V-Fc was given i.p. 4 times at 72 hours intervals. The mice were then observed and sacrificed until they were moribund. Shown were the survival of different mice after they were treated with different antibody and drug combinations.
Whether Annexin V-IgG1Fc fusion protein can enhance the treatment of c1498 AML in syngeneic mice (C57BL/6) in combination with cytarabine, a commonly used drug for AML treatment, was examined. […] Here, about 2×10^5 c1498 cells were injected into the tail vein of C57BL/6 mice. At 24 hrs after the injection, the mice were treated with 100 mg/kg cytarabine (injected i.p. every 12 hrs for 3 times). At 24 hrs after the last treatment, Annexin V-Fc was given i.p. 4 times at 72 hours intervals. The mice were then observed and sacrificed until they are moribund.

KG1a human AML cell line = test: Phagocytosis assay with THP1-derived macrophages; assay type: cell-based; settings: untreated or doxorubicin-treated cells; 2 hrs incubation; versus isotype control (IgG1)
Experimental: THP1 cells transduced with mCherry were differentiated into macrophages following previously established procedures. The macrophages were then incubated with non-treated or doxorubicin-treated KG1a human AML cell line transduced with EGFP in the presence of either isotype control (IgG1) or AnnexinV-IgG1Fc. After 2 hrs of incubation, the macrophages and the KG1a cells they have engulfed were counted.
The ability of THP1-derived macrophages to phagocytose control or doxorubicin-treated […] cells was examined. […] Representative fluorescence images of phagocytosis assay. THP1 cells transduced with mCherry were differentiated into macrophages following previously established procedures. The cells were then incubated with non-treated or doxorubicin-treated KG1a human AML cell line transduced with EGFP in the presence of either isotype control (IgG1) or AnnexinV-IgG1Fc. After 2 hrs of incubation, the macrophages and the KG1a cells they have engulfed were counted (FIG. 2A). Quantitative estimates of phagocytosis of KG1a cells by THP1-derived macrophages, the phagocytic index was calculated as: (Average number of KG1a cells engulfed per macrophage)×(percentage of macrophages which have engulfed KG1a cells)×[…] (FIG. 2B).

[2] = tested on: c1498 murine AML (Acute Myeloid Leukemia) cells; test: Survival of FACS-sorted phosphatidylserine-positive c1498 AML cells; assay type: cell-based; settings: Mus musculus, c1498 cells treated with cytarabine (1 μM) for 24 hrs, estimated from growth rates
Description: FIG. 1A-FIG. 1C show the survival of phosphatidylserine-expressing AML cells. […] The rectangles indicate the sorted cells. […] About 1000 each of the sorted cells were placed into multi-well plates. When the cells reached sufficient numbers, they were counted at different time points to measure their growth rates. The growth rates were then used to estimate the initial live cell numbers. The following formula was used to calculate the minimal initial live cell numbers: Minimal initial cell number=Total cell population/(growth rate*t)(days to reach the current cell number).
To determine whether cells expression high-level of PS expression on the cell surface are destined to die, the viability of c1498 murine AML (Acute Myeloid Leukemia) cells treated with cytarabine (part of a classical chemotherapy regimen for human AML) was examined. Specifically, whether cell surface PS-expressing acute myelocytic leukemia (AML) cells survived was examined. FACS was used to identify and sort cells with high cell surface PS-expression and the ability to survive was measured. FIG. 1A-FIG. 1B). In FIG. 1A, FACS sorting of untreated c1498 cells (in DMEM with 8% FBS). The rectangles indicate the sorted cells. In FIG. 1B, FACS sorting of c1498 cells treated with cytarabine (1 μM) for 24 hrs). […] When the cells reached sufficient numbers, the cells were counted at different time points to measure growth rates. […]

various cancer cells = various cancer cells in vitro; versus irinotecan; cited from earlier work

Compound: calicheamicin
- potency relative to doxorubicin [1]: approximately 4000 times

Compound: Annexin V-IgG1Fc fusion protein: Annexin V fused to the Fc domain of IgG1; SEQ ID NO:85 is the form with secretion signal
- median survival of host mice (c1498 AML): > 62 days
- phagocytosis of AML cells by THP1-derived macrophages (phagocytic index) (KG1a human AML cell line): effectively boosted the phagocytosis

Compound: Nc1ccn([C@@H]2O[C@H](CO)[C@@H](O)[C@@H]2O)c(=O)n1 [cytarabine]
- viability at 1 µM ([2]; read-out: proportion of PS+7AAD+ c1498 cells that remained viable and could proliferate): ~8%
- viability at 1 µM ([2]; read-out: proportion of PS+7AAD- c1498 cells that remained viable and could proliferate): ~25%

Compound: CCc1c2c(nc3ccc(O)cc13)-c1cc3c(c(=O)n1C2)COC(=O)[C@]3(O)CC [SN-38, 7-ethyl-10-hydroxy-camptothecin]
- cytotoxic activity relative to irinotecan (various cancer cells): up to 1,000 fold
